These results are taken from patent US20240166599A1, “INDOLE DERIVATIVES AS SEROTONERGIC AGENTS USEFUL FOR THE TREATMENT OF DISORDERS RELATED THERETO” (Mindset Pharma Inc., priority 2021, published 2024).

Data set [1] in a line: Liver microsomes stability, rat. To be noted: for Remaining Percentage (%) after 60 min, Rat: rat liver microsomes with NADPH, 2 μM; for half-life at 2 μM / microsomal CLint at 2 μM: rat, microsomes.
A short description of data set [2]: Liver microsomes stability, human. To be noted: for Remaining Percentage (%) after 60 min, Human: human liver microsomes with NADPH, 2 μM; for half-life at 2 μM / microsomal CLint at 2 μM: human, microsomes. As to the method: (§1) The objective of this study was to estimate in vitro metabolic stability of representative compounds of the application in pooled human and male mouse liver microsomes. The concentrations of parent compounds in reaction systems were evaluated by LC-MS/MS for estimating the stability in pooled human and male mouse liver microsomes. The in vitro intrinsic clearances of test compounds were determined as well.
(§2) A master solution in the “Incubation Plate” containing phosphate buffer, ultra-pure H2O, MgCl2 solution and liver microsomes was made according to Table 3. The mixture was pre-warmed at 37° C. water bath for 5 minutes.
(§3) 40 μL of 10 mM NADPH solution was added to each well. The final concentration of NADPH was 1 mM. The negative control samples were prepared by replacing NADPH with 40 μL of ultra-pure H2O. Samples were prepared in duplicate. Negative controls were prepared in singlet.
(§4) The reaction was started with the addition of 4 μL of 200 μM test compounds or control compounds to each master solution to get the final concentration of 2 μM. This study was performed in duplicate.
(§5) Aliquots of 50 μL were taken from the reaction solution at 0, 15, 30, 45 and 60 minutes. The reaction solutions were stopped by the addition of 4 volumes of cold methanol with IS (100 nM alprazolam, 200 nM imipramine, 200 nM labetalol and 2 μM ketoprofen). Samples were centrifuged at 3,220 g for 40 minutes. Aliquot of 90 μL of the supernatant was mixed with 90 μL of ultra-pure H2O and then was used for LC-MS/MS analysis.
(§6) LC/MS analysis was performed for all samples from this study using a Shimadzu liquid chromatograph separation system equipped with degasser DGU-20A5R; solvent delivery unit LC-30AD; system controller SIL-30AC; column oven CTO-30A; CTC Analytics HTC PAL System. Mass spectrometric analysis was performed using an Triple Quad™ 5500 instrument.
(§7) All calculations were carried out using Microsoft Excel. Peak areas were determined from extracted ion chromatograms. The slope value, k, was determined by linear regression of the natural logarithm of the remaining percentage of the parent drug vs. incubation time curve.
(§8) The in vitro half-life (in vitro t1/2) was determined from the slope value:
(§9) Conversion of the in vitro t1/2 (min) into the in vitro intrinsic clearance (in vitro CLint, in μL/min/mg proteins) was done using the following equation (mean of duplicate determinations): […]

The target in data set [3] is T1, human 5-HT2A (h5-HT2A) receptor (Homo sapiens, UniProt P28223).
T1 construct: expressed in transfected cells
The experiment in a line: FLIPR assay, human 5-HT2A, agonist mode. The class given is cell-based. As to the method:
I.c. Experimental Methods and Procedures: • 1. […] One day before the assays, the cells were detached using TrypLE™ Express and cells were counted using cell counter. […] 20000 cells/well were seeded in 30 μl/well culture medium to a 384-well cell plate and cells were incubated overnight at 37° C., 5% (v/v) CO2. • 4. On the assay day, 2×dye solution was prepared following the manual of the FLIPR® Calcium 6 Assay Kit: i. The dye was diluted with assay buffer (20 mM HEPES in 1×HBSS, PH7.4); ii. Probenecid was added to the final concentration of 5 mM; iii. […] Medium was removed from cell plate by flicking the cell plate on towel papers. • 6. […] The cell plate was placed on plate shaker, the plate was agitated at 600 rpm for 2 minutes. The plate was incubated at 37° C. for 2 hours followed by additional 15-minute incubation at 25° C. • 8. 3×compound in assay buffer was prepared: a. Reference compounds were diluted to required concentration with DMSO. The compounds were added to a 384-well compound plate; b. Serial dilutions were performed; c. 10 mM test compounds were added to the compound plate, and 3-fold serial dilutions were performed. d. […] Add 20 μl/well assay buffer to the compound plate; f. […] The cell plate, compound plate and tips were put into FLIPR, 10 μl of 3× compound was transferred to the cell plate per well with FLIPR.
• i. […] Calculated the percentage activation by using following equation: […]

Data set [4] in a line: Liver microsomes stability, mouse. To be noted: for half-life at 2 μM / microsomal CLint at 2 μM: male, mouse, microsomes; for Remaining Percentage (%) after 60 min, Mouse: mouse liver microsomes with NADPH, 2 μM. As to the method: as §1, §2, §3, §4, §5, §6, §7, §8, §9
In another data set the target is human 5-HT2A receptor (Homo sapiens, UniProt P28223). The experiment in a line: biochemical.

Some results are limits rather than exact numbers.

human 5-HT2A receptor, sequence (P28223 whole entry): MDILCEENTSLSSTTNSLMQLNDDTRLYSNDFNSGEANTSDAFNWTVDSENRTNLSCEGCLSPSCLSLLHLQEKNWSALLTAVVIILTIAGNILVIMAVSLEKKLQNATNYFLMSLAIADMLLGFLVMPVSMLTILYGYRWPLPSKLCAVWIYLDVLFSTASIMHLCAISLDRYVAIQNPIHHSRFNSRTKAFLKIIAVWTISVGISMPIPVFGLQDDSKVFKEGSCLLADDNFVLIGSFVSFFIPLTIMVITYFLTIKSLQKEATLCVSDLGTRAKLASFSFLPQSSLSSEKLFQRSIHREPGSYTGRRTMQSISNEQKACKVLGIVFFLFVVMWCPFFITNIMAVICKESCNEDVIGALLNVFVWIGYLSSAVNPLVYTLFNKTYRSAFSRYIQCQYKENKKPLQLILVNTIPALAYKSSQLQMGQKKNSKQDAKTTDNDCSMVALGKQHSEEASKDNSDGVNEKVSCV
T1 sequence (P28223 whole entry): as above
Experimental for human 5-HT2A receptor: Human 5-HT2A: Radioligand Binding Assay:
II.3 Experiment Procedure: • i. Prepared the assay buffer following the table below;
• ii. Preparation of 8 doses of reference and test compounds starting from 10 mM stock solution as requested by 5-fold serial dilutions with 100%; • iii. Prepared (v/v) DMSO: a. 50 μl/well of 0.5% (v/v) PEI was added to UniFilter-96 GF/B plates. The plates were sealed and incubates at 4° C. for 3 hrs; b. After incubation, the plates were washed 3 times with ice-cold wash buffer (50 mM Tris, pH7.4); • iv. Preparation of assay plates: a. Cell membrane were diluted with assay buffer and 330 μl/well was added to 96 round deep well plates to reach a concentration of 20 μg/well; b. 8 concentrations of reference or test compounds were prepared and 110 μl/well was added to 96 round deep well plates; c. [3H]-ketanserin was diluted with assay buffer to 5 nM (5× final concentration) and 110 μl/well was added to 96 round deep well plates. • v. The plate was centrifuged at 1000 rpm for 30 secs and then agitated at 600 rpm, R.T. for 5 min. • vi. The plates were sealed and incubates at 27° C. for 90 min. • vii. The incubation was stopped by vacuum filtration onto GF/B filter plates followed by 4 times washing with ice-cold wash buffer (50 mM Tris, pH7.4). • viii. […] The filter plates were sealed and 40 μl/well of scintillation cocktail was added. • x. The plate was read by using a Microbeta2 microplate counter.
For reference and test compounds, the results are expressed as % Inhibition, using the normalization equation: N=100−100×(U−C2)/(C1−C2), where U is the unknown value, C1 is the average of high controls, and C2 is the average of low controls.

`[2H]C([2H])([2H])N(C([2H])([2H])[2H])C([2H])([2H])C([2H])([2H])c1c[nH]c2ccccc12` [I-A-1, 2-(1H-indol-3-yl)-N,N-bis(methyl-d3)ethan-1-amine-1,1,2,2-d4]: in data set [1], the “Remaining Percentage (%) after 60 min, Rat” value came to 9.38%; the half-life at 2 μM was found to be 17.6 min; the intrinsic clearance (microsomal CLint) at 2 μM was 39.7 µL/min/mg. In addition, in data set [2], the “Remaining Percentage (%) after 60 min, Human” value is 0.46%; the half-life at 2 μM stood at 7.73 min; the microsomal CLint at 2 μM came to 19 µL/min/mg. This compound displayed an EC50 in data set [3] below 1000 nM. Besides, in data set [4], the half-life at 2 μM stood at 87.2 min; the microsomal CLint at 2 μM came out at 39.2 µL/min/mg; the “Remaining Percentage (%) after 60 min, Mouse” value worked out at 62.07%. On human 5-HT2A receptor, the IC50 was below 500 nM.
In the case of `[2H]c1[nH]c2c([2H])c([2H])c([2H])c([2H])c2c1CCN(C)C` [I-A-2, 2-(1H-indol-3-yl-2,4,5,6,7-d5)-N,N-dimethylethan-1-amine], in data set [1], the “Remaining Percentage (%) after 60 min, Rat” value is listed as 17.65%; the half-life at 2 μM was 24 min; the microsomal CLint at 2 μM turned out to be 36 µL/min/mg. In data set [2], the “Remaining Percentage (%) after 60 min, Human” value was found to be 0.76%; the half-life at 2 μM came to 8.52 min; the intrinsic metabolic clearance (microsomal CLint) at 2 μM was found to be 18.8 µL/min/mg. In data set [3], this compound gave a concentration for a half-maximal effect (EC50) below 1000 nM. Also, in data set [4], the half-life at 2 μM was 17.4 min; the intrinsic metabolic clearance (microsomal CLint) at 2 μM is 41.2 µL/min/mg; the “Remaining Percentage (%) after 60 min, Mouse” value is 59.38%. Also, the half-inhibitory concentration (IC50) against human 5-HT2A receptor is below 500 nM.
As for `CN(C)CCc1c[nH]c2ccccc12` [DMT, N,N-dimethyltryptamine, reference compound], in data set [3], the concentration for a half-maximal effect (EC50) is below 1000 nM. At human 5-HT2A receptor, this compound returned an IC50 below 500 nM.
As for `[2H]C([2H])([2H])Oc1ccc2[nH]cc(C([2H])([2H])C([2H])([2H])N(C([2H])([2H])[2H])C([2H])([2H])[2H])c2c1` [I-A-6, 2-(5-(methoxy-d3)-1H-indol-3-yl)-N,N-bis(methyl-d3)ethan-1-amine-1,1,2,2-d4], in data set [1], the “Remaining Percentage (%) after 60 min, Rat” value is reported as 5.25%; the half-life at 2 μM turned out to be 9.88 min; the intrinsic metabolic clearance (microsomal CLint) at 2 μM came to 9.26 µL/min/mg. Besides, in data set [2], the “Remaining Percentage (%) after 60 min, Human” value is 15.50%; the half-life at 2 μM was 2.3 min; the microsomal CLint at 2 μM was 16.4 µL/min/mg. In addition, in data set [4], the half-life at 2 μM came out at 97.5 min; the intrinsic metabolic clearance (microsomal CLint) at 2 μM stood at 36.8 µL/min/mg; the “Remaining Percentage (%) after 60 min, Mouse” value was 65.29%.
